# Reference: US7482479B2, “Production of cis-pellitorin and use as a flavouring” (Symrise GmbH & Co., KG, priority 2002, dated 2009)
# Columns and labels:
# [1] = Tasting of the substance in 11% sugar solution by a group of testers (sensory profile); assay type: in vivo; conditions: for sensory profile (tasting): approx. 5 ml swallowed, 6 to 8 testers; for flavour impression in sensory testing: concentration not given
# Protocol: The substance to be tasted is dissolved in ethanol and the ethanolic solution then diluted with an 11% sugar solution (final concentration: c). Approx. 5 ml of the sugar solution at a time are swallowed for the tasting. If the threshold value of the substance is known, a value just above the threshold value is chosen for the tasting. A group of 6 to 8 testers tasted the solutions.
# [2] = frequent use and overdosing; cited from earlier work
# mouse = conditions: cited from earlier work
# [3] = capsaicin as reference; cited from earlier work
smiles,measurement,setting,value
"CCCCC/C=C/C=C/C(=O)NCC(C)C [trans-pellitorine, 2E,4E-decadienoic acid-N-isobutylamide]",sensory profile (tasting),[1]; c=10 ppm in 11% sugar solution,"saliva-stimulating, oily, fruity, slightly tingling, not pungent"
same,flavour impression in sensory testing,[1],primarily numbing
COc1cc(CNC(=O)CCCCCCC(C)C)ccc1O [dihydrocapsaicin],sensory profile (tasting),[1]; c=100 ppb in 11% sugar solution,"slightly delayed onset of effect in the pharynx, burning, aggressive, no heat development"
"COc1cc(CNC(=O)CCCC/C=C/C(C)C)ccc1O [capsaicin, N-(4-hydroxy-3-methoxybenzyl)-8-methyl-(6E)-nonenoic acid amide]",chronic toxicity,[2],"chronic gastritis, kidney and liver damage"
same,LD50 (mouse oral),mouse,47 mg
"CCCCC/C=C\C=C\C(=O)NCC(C)C [cis-pellitorine, 2E,4Z-decadienoic acid-N-isobutylamide]",sensory profile (tasting),[1]; c=10 ppm in 11% sugar solution,"pronounced feeling of warmth, immediately pungent, typical alcohol pungency"
same,flavour impression in sensory testing,[1],"pleasant, extremely pungent and warm flavour impression, which is reminiscent of ethanol and is relatively long lasting"
"O=C(/C=C/C=C/c1ccc2c(c1)OCO2)N1CCCCC1 [piperine, 1-piperoyl piperidine]",relative pungency in comparison to capsaicin,[3],approx. 1%
